From patent US5244891A, “Injectable compositions of cefepime dihydrochloride hydrate” (priority 1992, dated 1993)
Entries after “also recorded” stand apart in the source; their conditions may differ. Structures can show the parent of a compound that is named as a salt. Where two headings read alike, the source gives them in different places.

How the values were obtained:
Solubility in water = format: physicochemical; conditions: for solubility in water (in words): for typical injectable compositions
[1] = Elevated temperature storage stability in dry form (potency loss or gain by HPLC); format: physicochemical; conditions: for degraded at 24 h: 1 day
Procedure: Elevated temperature stabilities were determined by storing the preparations in dry containers at temperatures and for time periods as denoted below and potency losses or gains were determined by HPLC. A % potency gain is indicated by a plus sign in front of a figure. A less than 10% potency loss over a 2 to 4 week period at 45-56 deg. C. is usually indicative of less than 10% potency loss over a 2-3 year period at room temperature.

[2] = Formation of insoluble particles on storage; format: physicochemical; conditions: storage at elevated temperatures
From the text: The dihydrochloride dihydrate described in Example XIII can be easily dried to give the same dihydrochloride monohydrate described in Examples XI and XII. […] Accordingly, the monohydrate carrying up to about 1% by weight of adventitious water is the preferred form (total water content ca. 2.5-4.1%).

[3] = dry powder, 45 deg. C. and above, even one week; 10080 min; cited from earlier work
various organisms = conditions: Aburaki et al. U.S. Pat. No. 4,406,899; listed as zwitterion form; cited from earlier work
[4] = Weight loss on drying of the hydrate; format: physicochemical; conditions: 57° C., 0.001 mm Hg over P2 O5, 5 days; or 45° C., 10 mm Hg, 2 days
From the text: The foregoing procedures of Examples XI and XII routinely produce monohydrate having a water content in the range of 2.46% to 3.70% with an average value of 3.31%. The value calculated from the stoichiometric formula is 3.15%.

[5] = 45 Deg. C., 1 week, dry container, + = potency gain, 10080 min
[6] = 45 Deg. C., 2 weeks, dry container, + = potency gain, 20160 min
[7] = 45 Deg. C., 4 weeks, dry container, + = potency gain, 40320 min
[8] = 45 Deg. C., 6 weeks, dry container, + = potency gain, 60480 min
[9] = 56 Deg. C., 1 week, dry container, + = potency gain, 10080 min
[10] = listed as sulfuric acid addition salt, sulfate salt
[11] = dry solid, 100 Deg. C., dry container, + = potency gain, read-out: PERCENT LOSS (potency)
[12] = listed as di-nitric acid addition salt
[13] = 56 Deg. C., 2 weeks, dry container, + = potency gain, 20160 min
[14] = dry solid, 45 Deg. C., 2 weeks, dry container, + = potency gain, read-out: PERCENT LOSS (potency)

CO/N=C(\C(=O)NC1C(=O)N2C(C(=O)[O-])=C(C[N+]3(C)CCCC3)CSC12)c1csc(N)n1 (centres unmarked) [HCl Salt]
solubility in water (Solubility in water; listed as mono-hydrochloric acid addition salt): greater than 200 mg/ml
PERCENT LOSS (potency) [1, 5]: 4.8%
PERCENT LOSS (potency) [1, 6]: 2.3%
PERCENT LOSS (potency) [1, 7]: 6.0%
PERCENT LOSS (potency) [1, 8]: 6.4%
PERCENT LOSS (potency) [1, 9]: 6.4%

CO/N=C(\C(=O)NC1C(=O)N2C(C(=O)[O-])=C(C[N+]3(C)CCCC3)CSC12)c1csc(N)n1 (stereo not drawn) [Sesquiphosphate Salt, crystalline sesquiphosphate salt of 7-[α-(2-aminothiazol-4-yl)-α-(Z)-methoxyiminoacetamido]-3-[(1-methyl-1-pyrrolidinio)methyl]-3-cephem-4-carboxylate]
solubility in water (Solubility in water; listed as sesqui-orthophosphoric acid addition salt): greater than 200 mg/ml
Stability, % Loss ([1]; 1 month, 37° C., 43200 min): 2.5%
Stability, % Loss ([1]; 1 week, 45° C., 10080 min): 0%
Stability, % Loss ([1]; 4 weeks, 56° C., 40320 min): 0%
Stability, % Loss ([1]; 3 days, 70° C.): 0%
degraded at 168 h ([1]; dry solid, 1 week, 56° C., read-out: Stability, % Loss): 1%
degraded at 336 h ([1]; dry solid, 2 weeks, 45° C., read-out: Stability, % Loss): 1.4%
degraded at 336 h ([1]; dry solid, 2 weeks, 56° C., read-out: Stability, % Loss): 1.4%
degraded at 672 h ([1]; dry solid, 4 weeks, 45° C., read-out: Stability, % Loss): 0.7%
degraded at 1344 h ([1]; dry solid, 8 weeks, 45° C.): 1.6%
degraded at 24 h ([1]; dry solid, 100° C., read-out: Stability, % Loss): 10.9%
degraded at 168 h ([1]; dry solid, 7 days, 70° C., read-out: Stability, % Loss): 1.9%

CO/N=C(\C(=O)NC1C(=O)N2C(C(=O)[O-])=C(C[N+]3(C)CCCC3)CS[C@H]12)c1csc(N)n1 (stereo partly drawn) [H2 SO4 Salt, 7-[α-(2-aminothiazol-4-yl)-α-(Z)-methoxyiminoacetamido]-3-[(1-methyl-1-pyrrolidinio)methyl]-3-cephem-4-carboxylate sulfate salt]
solubility compared to the zwitterion form (Solubility in water): limited solubility
solubility in water (in words) (Solubility in water; [10]): reduced solubilities which are insufficient for typical injectable compositions; also recorded: not sufficiently soluble to form compositions of normal concentration for administration
solubility in water (Solubility in water; listed as crystalline sulfuric acid addition salt, sulfate salt): 25 mg/mL
solubility in water (Solubility in water; [10]): about 25 mg/ml
PERCENT LOSS (potency) ([1]; 45 Deg. C., 1 week, dry container, + = potency gain, 10080 min, sulfate salt, 10080 min): 2.4 to +5%
PERCENT LOSS (potency) ([1]; 45 Deg. C., 2 weeks, dry container, + = potency gain, 20160 min, sulfate salt, 20160 min): 3%
PERCENT LOSS (potency) ([1]; 45 Deg. C., 4 weeks, dry container, + = potency gain, 40320 min, sulfate salt, 40320 min): +5%
PERCENT LOSS (potency) ([1]; 45 Deg. C., 6 weeks, dry container, + = potency gain, 60480 min, sulfate salt, 60480 min): 1.4%
PERCENT LOSS (potency) ([1]; 56 Deg. C., 1 week, dry container, + = potency gain, 10080 min, sulfate salt, 10080 min): 5 to +6%
PERCENT LOSS (potency) ([1]; 56 Deg. C., 2 weeks, dry container, + = potency gain, 20160 min, sulfate salt, 20160 min): +3%
PERCENT LOSS (potency) ([1]; 56 Deg. C., 4 weeks, dry container, + = potency gain, 40320 min, sulfate salt, 40320 min): 0 to +6%
degraded at 730 h ([1]; dry solid, 45-56 deg. C., one month): < 10%

CO/N=C(\C(=O)NC1C(=O)N2C(C(=O)[O-])=C(C[N+]3(C)CCCC3)CSC12)c1csc(N)n1 (stereo not drawn) [dihydrate, dihydrate of 7-[α-(2-aminothiazol-4-yl)-α-(Z)-methoxyiminoacetamido]-3-[(1-methyl-1-pyrrolidinio)methyl]-3-cephem-4-carboxylate dihydrochloride]
formation of insoluble particles [2]: formation of trace amounts of insoluble particles was observed

CO/N=C(\C(=O)NC1C(=O)N2C(C(=O)[O-])=C(C[N+]3(C)CCCC3)CSC12)c1csc(N)n1 (centres unmarked) [(HCl)2 Salt]
solubility in water (Solubility in water; listed as di-hydrochloric acid addition salt): greater than 200 mg/ml
PERCENT LOSS (potency) [1, 5]: 0%
PERCENT LOSS (potency) [1, 7]: 7.4%
PERCENT LOSS (potency) [1, 9]: 0%
degraded at 672 h ([1]; dry solid, 56° C., 4 weeks, read-out: potency loss on storage): 7.2%
degraded at 24 h [1, 11]: 12.4%

CO/N=C(\C(=O)NC1C(=O)N2C(C(=O)[O-])=C(C[N+]3(C)CCCC3)CSC12)c1csc(N)n1 (centres unmarked) [(HNO3)2 Salt]
solubility in water (in words) (Solubility in water; [12]): reduced solubilities which are insufficient for typical injectable compositions; also recorded: not sufficiently soluble to form compositions of normal concentration for administration
solubility in water (Solubility in water; [12]): about 60 mg/ml
PERCENT LOSS (potency) [1, 5]: 8.8%
PERCENT LOSS (potency) [1, 6]: 3.4%
PERCENT LOSS (potency) [1, 7]: 0.68%
PERCENT LOSS (potency) [1, 8]: 10.3%
PERCENT LOSS (potency) [1, 9]: 3.7%
PERCENT LOSS (potency) [1, 13]: 2.4%

CO/N=C(\C(=O)NC1C(=O)N2C(C(=O)[O-])=C(C[N+]3(C)CCCC3)CS[C@H]12)c1csc(N)n1 (stereo partly drawn) [Zwitterion, 7-[α-(2-aminothiazol-4-yl)-α-(Z)-methoxyiminoacetamido]-3-[(1-methyl-1-pyrrolidinio)methyl]-3-cephem-4-carboxylate, reference compound]
loss of activity on storage [3]: ≥ 30%
degraded at 168 h ([1]; dry solid, 45 Deg. C., 1 week, dry container, + = potency gain, read-out: PERCENT LOSS (potency)): 37%
degraded at 336 h [1, 14]: 51%
degraded at 672 h ([1]; dry solid, 45 Deg. C., 4 weeks, dry container, + = potency gain, read-out: PERCENT LOSS (potency)): 71%
degraded at 168 h ([1]; dry solid, 56 Deg. C., 1 week, dry container, + = potency gain, read-out: PERCENT LOSS (potency)): 57%
degraded at 24 h [1, 11]: 100%
spectrum of activity (various organisms): broader spectrum activity than ceftazidime and cefotaxime; also recorded: broad spectrum utility against various organisms

CO/N=C(\C(=O)NC1C(=O)N2C(C(=O)[O-])=C(C[N+]3(C)CCCC3)CSC12)c1csc(N)n1 (stereo not drawn) [monohydrate, crystalline dihydrochloride monohydrate of 7-[α-(2-aminothiazol-4-yl)-α-(Z)-methoxyiminoacetamido]-3-[(1-methyl-1-pyrrolidinio)methyl]-3-cephem-4-carboxylate]
loss in weight on drying [4]: no loss in weight
storage stability at elevated temperatures (chemical and biological potency) [1]: similar
degraded at 504 h ([1]; dry solid, 56° C., 3 weeks): 0.6%
remaining at 504 h ([1]; dry solid, 56° C., 3 weeks, total water content ca. 2.5-4.1%, read-out: retention of potency): ≥ 96%

CO/N=C(\C(=O)NC1C(=O)N2C(C(=O)[O-])=C(C[N+]3(C)CCCC3)CSC12)c1csc(N)n1 (stereo not drawn) [(H3 PO4)2 Salt, crystalline diphosphate salt of 7-[α-(2-aminothiazol-4-yl)-α-(Z)-methoxyiminoacetamido]-3-[(1-methyl-1-pyrrolidinio)methyl]-3-cephem-4-carboxylate]
solubility in water (Solubility in water; listed as di-orthophosphoric acid addition salt): greater than 200 mg/ml
PERCENT LOSS (potency) [1, 5]: 0%
PERCENT LOSS (potency) [1, 7]: 1.0%
PERCENT LOSS (potency) [1, 9]: 2.7%
PERCENT LOSS (potency) [1, 13]: 5.0%
degraded at 336 h [1, 14]: 3%
